Test results: article PMC3485228, “Structure-Based Engineering Increased the Catalytic Turnover Rate of a Novel Phenazine Prenyltransferase” (PLoS ONE, 2012)

Molecular target: T1, EpzP (Streptomyces virginiae, UniProt E5KWG9)
T1 construct: pET28a His6-tag, E. coli Rosetta2; tag thrombin-cleaved for structures (EpzPm: lysines reductively methylated, 18 of 19)
T1 sequence (E5KWG9 1-302): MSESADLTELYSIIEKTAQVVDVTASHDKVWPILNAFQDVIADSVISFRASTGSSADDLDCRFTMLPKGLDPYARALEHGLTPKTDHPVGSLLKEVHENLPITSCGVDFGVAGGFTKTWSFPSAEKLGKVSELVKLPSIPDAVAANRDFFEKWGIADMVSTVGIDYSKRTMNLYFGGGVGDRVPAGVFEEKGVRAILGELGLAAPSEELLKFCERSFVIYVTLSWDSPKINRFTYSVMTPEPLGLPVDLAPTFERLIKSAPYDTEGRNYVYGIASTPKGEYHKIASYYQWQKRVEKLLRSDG
Assay: X-ray crystal structure ([…] A)
Assay type: binding
Details: lysine-methylated EpzP; crystal soaked with 5 mM DMSPP, hydrolysed to SPP; diphosphate site; acidic pH

**Q.** How did the “X-ray crystal structure (1.67 A)” value turn out when `O=P(O)(O)OP(=O)(O)S` (stereo not shown) [S-thiolodiphosphate] was run?
**A.** revealed the presence of a S-thiolodiphosphate (SPP) moiety in the diphosphate binding site
